# Where two headings read alike, the source gives them in different places.
# What was measured:
# COX-1 = COX-1 (Homo sapiens, UniProt P23219); experiment: Assay of COX-1 activity from U937 cell microsomes (PGE2); format: biochemical; design: Assay of COX-1 Activity from U937 Cell Microsomes; endogenous in cells; host or cells: U937 cells, 100,000 x g microsomal pellet; details: U-937 cell microsomes, 15 min preincubation; read-out: COX-1 (IC50 mM) U-937
# Protocol: U 937 cells are pelleted by centrifugation at 500×g for 5 min and washed once with phosphate-buffered saline and repelleted. Cells are resuspended in homogenization buffer consisting of 0.1 M Tris-HCl, pH 7.4, 10 mM EDTA, […] leupeptin, 2 μg/ml soybean trypsin inhibitor, 2 μg/ml aprotinin and 1 mM phenyl methyl sulfonyl fluoride. The cell suspension is sonicated 4 times for 10 sec and is centrifuged at 10,000×g for 10 min at 4° C. The supernatant is centrifuged at 100,000×g for 1 hr at 4° C. The 100,000×g microsomal pellet is resuspended in 0.1 M Tris-HCl, pH 7.4, 10 mM EDTA to approximately 7 mg protein/ml and stored at -80° C.
# Microsomal preparations are thawed immediately prior to use, subjected to a brief sonication, and then diluted to a protein concentration of 125 μg/ml in 0.1 M Tris-HCl buffer, pH 7.4 containing 10 mM EDTA, 0.5 mM phenol, 1 mM reduced glutathione and 1 μM hematin. Assays are performed in duplicate in a final volume of 250 μl. Initially, 5 μl of DMSO vehicle or drug in DMSO are added to 20 μl of 0.1 M Tris-HCl buffer, pH 7.4 containing 10 mM EDTA in wells of a 96-deepwell polypropylene titre plate. 200 μl of the microsomal preparation are then added and pre-incubated for 15 min at room temperature before addition of 25 μl of […] arachidonic acid in […] Tris-HCl and 10 mM EDTA, pH 7.4. Samples are incubated for 40 min at room temperature and the reaction is stopped by the addition of 25 μl of 1 N HCl. Samples are neutralized with 25 μl of 1 N NaOH prior to quantitation of PGE2 content by radioimmunoassay (Dupont-NEN or Amersham assay kits). Cyclooxygenase activity is defined as the difference between PGE2 levels in samples incubated in the presence of arachidonic acid and ethanol vehicle.
# In the assay, inhibition is determined by measuring the amount of prostaglandin E2 (PGE2) synthesized in the presence of arachidonic acid, cyclooxygenase-1 or cyclooxygenase-2 and a putative inhibitor.
# COX-2 [1] = molecular target: T1, COX-2 (Homo sapiens, UniProt P35354); experiment: cell-based; details: CHO[hCOX-2] cells, 10 μM AA, 15 min preincubation; read-out: COX-2 (IC50 mM) CHO
# T1 sequence (P35354 18-604): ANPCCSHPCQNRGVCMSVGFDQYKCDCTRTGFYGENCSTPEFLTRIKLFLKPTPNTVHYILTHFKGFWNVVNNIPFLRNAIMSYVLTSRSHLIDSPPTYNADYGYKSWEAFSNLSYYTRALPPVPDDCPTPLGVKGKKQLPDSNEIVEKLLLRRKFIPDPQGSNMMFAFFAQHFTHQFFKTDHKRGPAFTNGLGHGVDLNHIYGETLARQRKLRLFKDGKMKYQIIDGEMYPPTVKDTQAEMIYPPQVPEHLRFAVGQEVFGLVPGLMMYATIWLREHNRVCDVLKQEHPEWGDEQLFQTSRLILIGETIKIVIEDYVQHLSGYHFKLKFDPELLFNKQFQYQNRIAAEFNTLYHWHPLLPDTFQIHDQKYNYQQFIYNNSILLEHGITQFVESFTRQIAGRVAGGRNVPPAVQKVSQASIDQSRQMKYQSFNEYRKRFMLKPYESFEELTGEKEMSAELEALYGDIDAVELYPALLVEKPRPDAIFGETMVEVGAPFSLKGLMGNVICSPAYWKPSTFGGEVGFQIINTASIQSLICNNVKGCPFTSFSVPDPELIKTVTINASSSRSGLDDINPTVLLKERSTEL
# COX-2 [2] = molecular target: T1, COX-2; experiment: cell-based; details: human whole blood, LPS-induced PGE2, 24 h; read-out: COX-2 (IC50 mM) HWB
# From the text: As well, platelets in whole blood contain a large amount of the COX-1 enzyme. Immediately following blood clotting, platelets are activated through a thrombin-mediated mechanism. This reaction results in the production of thromboxane B2 (TxB2) via activation of COX-1. Thus, the effect of test compounds on TxB2 levels following blood clotting can be examined and used as an index for COX-1 activity. Therefore, the degree of selectivity by the test compound can be determined by measuring the levels of PGE2 after LPS induction (COX-2) and TxB2 following blood clotting (COX-1) in the same assay.
# Fresh blood is collected in heparinized tubes by venipuncture from both male and female volunteers. The subjects have no apparent inflammatory conditions and have not taken any NSAIDs for at least 7 days prior to blood collection. Plasma is immediately obtained from a 2mL blood aliquot to use as blank (basal levels of PGE2). The remaining blood is incubated with LPS (100 μg/ml final concentration, Sigma Chem, #L-2630 from E. coli; diluted in 0.1% BSA (Phosphate buffered saline) for 5 minutes at room temperature. Five hundred […] aliquots of blood are incubated with either 2 μL of vehicle (DMSO) or 2 μL of a test compound at final concentrations varying from 10 nM to 30 μM for 24 hours at 37° C. At the end of the incubation, the blood is centrifuged at 12,000×g for 5 minutes to obtain plasma. A 100 μL aliquot of plasma is mixed with 400 μL of methanol for protein precipitation. The supernatant is obtained and is assayed for PGE2 using a radioimmunoassay kit (Amersham, RPA#530) after conversion of PGE2 to its methyl oximate derivative according to the manufacturer's procedure. […]
# Sequence of COX-1 (P23219 24-599): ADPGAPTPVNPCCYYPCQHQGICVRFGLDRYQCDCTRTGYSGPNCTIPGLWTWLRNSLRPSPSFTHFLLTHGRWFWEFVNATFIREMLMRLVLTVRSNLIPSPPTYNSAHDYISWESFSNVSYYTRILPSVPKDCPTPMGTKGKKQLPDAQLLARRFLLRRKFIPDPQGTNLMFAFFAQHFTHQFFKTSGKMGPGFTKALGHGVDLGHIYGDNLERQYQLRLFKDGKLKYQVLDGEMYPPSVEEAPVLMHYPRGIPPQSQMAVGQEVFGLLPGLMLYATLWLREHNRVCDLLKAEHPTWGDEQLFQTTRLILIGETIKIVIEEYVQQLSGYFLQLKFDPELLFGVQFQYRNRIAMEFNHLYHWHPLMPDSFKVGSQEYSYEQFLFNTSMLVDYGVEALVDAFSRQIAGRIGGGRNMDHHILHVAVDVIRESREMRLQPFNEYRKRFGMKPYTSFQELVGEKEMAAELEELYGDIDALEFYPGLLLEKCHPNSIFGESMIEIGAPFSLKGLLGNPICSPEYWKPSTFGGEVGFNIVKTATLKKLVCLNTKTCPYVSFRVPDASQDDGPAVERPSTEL
Compound,IC50 (COX-1) [mM],IC50 (COX-2 [1]) [nM],IC50 (COX-2 [2]) [mM]
"CC(C)(O)COc1ncc(Cl)cc1-c1ccc(S(C)(=O)=O)cc1 [Example 5, 5-Chloro-2-(2-hydroxy-2-methyl-1-propyloxy)-3-(4-methylsulfonyl)phenylpyridine]",> 0.1,110,0.0036
"CCC(O)(CC)CSc1ncc(Cl)cc1-c1ccc(S(C)(=O)=O)cc1 [Example 48, 5-Chloro-2-(2-ethyl-2-hydroxy-1-thiobutyloxy)-3-(4-methylsulfonyl)phenylpyridine]",0.001 to 0.003,70,0.0011
"CCC(O)(CC)CSc1ncc(C(F)(F)F)cc1-c1ccc(S(C)(=O)=O)cc1 [Example 47, 2-(2-Ethyl-2-hydroxy-1-thiobutyloxy)-3-(4-methylsulfonyl)phenyl-5-trifluoromethylpyridine]",0.003 to 0.01,20,0.0006
"C[C@@H](O)CCOc1ncc(C(F)(F)F)cc1-c1ccc(S(C)(=O)=O)cc1 [Example 39, 2-((3R)-3-Hydroxy-1-butyloxy)-3-(4-methylsulfonyl)phenyl-5-trifluoromethylpyridine]",> 0.01,200,0.0134
"CS(=O)(=O)c1ccc(-c2cc(C(F)(F)F)cnc2SCC2(O)CCCC2)cc1 [Example 49, 2-(1-Hydroxycyclopentyl)thiomethoxy-3-(4-methylsulfonyl)phenyl-5-trifluoromethylpyridine]",0.0003,160,0.0012
"CCC(O)(CC)[C@H](C)Oc1ncc(C(F)(F)F)cc1-c1ccc(S(C)(=O)=O)cc1 [Example 20, 2-((2S)-3-Ethyl-3-hydroxy-2-pentyloxy)-3-(4-methylsulfonyl)phenyl-5-trifluoromethylpyridine]",> 0.01,400,0.0016
"C[C@H](O)[C@@H](C)Oc1ncc(C(F)(F)F)cc1-c1ccc(S(C)(=O)=O)cc1 [Example 25, 2-((2R,3S)-3-Hydroxy-2-butyloxy)-3-(4-methylsulfonyl)phenyl-5-trifluoromethylpyridine]",> 0.01,60,0.0036
"C[C@]1(O)CCC[C@H]1Oc1ncc(C(F)(F)F)cc1-c1ccc(S(N)(=O)=O)cc1 (relative stereo) [Example 33, 3-(4-aminosulfonyl)phenyl-2-(cis-2-hydroxy-2-methylcyclopentyloxy)-5-trifluoromethylpyridine]",0.01,40,0.0037
"CS(=O)(=O)c1ccc(-c2cc(C(F)(F)F)cnc2OCC2(O)CC2)cc1 [Example 11, 2-(1-Hydroxycyclopropyl)methoxy-3-(4-methylsulfonyl)phenyl-5-trifluoromethylpyridine]",0.01,90,0.0016
"CC(C)(O)COc1ncc(C(F)(F)F)cc1-c1ccc(S(C)(=O)=O)cc1 [Example 4, 2-(2-Hydroxy-2-methyl-1-propyloxy)-3-(4-methylsulfonyl)phenyl-5-trifluoromethylpyridine]",> 0.1,150,0.0008
"C[C@@H](O)[C@@H](C)Oc1ncc(Cl)cc1-c1ccc(S(C)(=O)=O)cc1 [Example 24, 5-Chloro-2-((2R,3R)-3-hydroxy-2-butyloxy)-3-(4-methylsulfonyl)phenylpyridine]",> 0.01,70,0.0015
"C[C@H](CCO)Oc1ncc(C(F)(F)F)cc1-c1ccc(S(C)(=O)=O)cc1 [Example 41, 2-((2R)-4-Hydroxy-2-butyloxy)-3-(4-methylsulfonyl)phenyl-5-trifluoromethylpyridine]",> 0.01,40,0.0004
"C[C@@]1(O)CCCC[C@@H]1Oc1ncc(C(F)(F)F)cc1-c1ccc(S(C)(=O)=O)cc1 (relative stereo) [Example 37, 2-(cis-2-Hydroxy-2-methylcyclohexyloxy)-3-(4-methylsulfonyl)phenyl-5-trifluoromethylpyridine]",> 0.01,570,0.0065
"CC[C@]1(O)CCC[C@H]1Oc1ncc(C(F)(F)F)cc1-c1ccc(S(C)(=O)=O)cc1 (relative stereo) [Example 36, 2-(cis-2-Hydroxy-2-ethylcyclopentyloxy)-3-(4-methylsulfonyl)phenyl-5-trifluoromethylpyridine]",> 0.01,170,0.0031
"C[C@H](Oc1ncc(C(F)(F)F)cc1-c1ccc(S(C)(=O)=O)cc1)C(C)(C)O [Example 16, 2-((2S)-3-Hydroxy-3-methyl-2-butyloxy)-3-(4-methylsulfonyl)phenyl-5-trifluoromethylpyridine]",> 0.01,430,0.0006
"CCC(Oc1ncc(C(F)(F)F)cc1-c1ccc(S(C)(=O)=O)cc1)C(C)(C)O (stereo not drawn) [Example 19, 2-(4-Hydroxy-4-methyl-3-pentyloxy)-3-(4-methylsulfonyl)phenyl-5-trifluoromethylpyridine]",> 0.01,320,0.0005
"CCC(O)(CC)COc1ncc(C(F)(F)F)cc1-c1ccc(S(C)(=O)=O)cc1 [Example 8, 2-(2-Hydroxy-2-ethyl-1-butyloxy)-3-(4-methylsulfonyl)phenyl-5-trifluoromethylpyridine]",> 0.01,190,0.0011
"CC(C)(O)CSc1ncc(Cl)cc1-c1ccc(S(C)(=O)=O)cc1 [Example 44, 5-Chloro-2-(2-Hydroxy-2-methyl-1-thiopropyloxy)-3-(4-methylsulfonyl)phenylpyridine]",> 0.01,40,0.0015
"CCC(C)(O)COc1ncc(C(F)(F)F)cc1-c1ccc(S(C)(=O)=O)cc1 (stereo not drawn) [Example 7, 2-(2-Hydroxy-2-methyl-1-butyloxy)-3-(4-methylsulfonyl)phenyl-5-trifluoromethylpyridine]",> 0.01,130,0.001
"COCCOc1ncc(C(F)(F)F)cc1-c1ccc(S(C)(=O)=O)cc1 [Example 2, 2-(2-Methoxy)ethoxy-3-(4-methylsulfonyl)phenyl-5-trifluoromethylpyridine]",0.001 to 0.003,20,0.0013

# From US6046217A, “2,3,5-trisubstituted pyridines as inhibitors of cyclooxygenase-2” (Merck Frosst Canada & Co., priority 1998, dated 2000)
